In the NIST ThermoML archive (doi:10.1021/je400130b):

Experiment: molar heat capacity at constant pressure
Conditions: 101.33 kPa, Crystal, Small (less than 1 g) adiabatic calorimetry

O=S(=O)([O-])[O-].[Cu+2].[Cu+2].[Cu+2].[OH-].[OH-].[OH-].[OH-] [copper(II) tetrahydroxide sulfate]
Conditions	molar heat capacity at constant pressure [J/K/mol]
144.68 K	141.3
145.22 K	142.14
147.87 K	144.34
148.42 K	144.91
150 K	146.3
151.08 K	147.15
151.63 K	147.79
153.75 K	149.17
154.85 K	150.6
155.89 K	151.01
158.03 K	152.89
158.08 K	153.14
160 K	154.8
160.17 K	154.93
161.31 K	155.76
162.32 K	156.42
164.47 K	158.12
164.54 K	158.38
166.62 K	159.83
167.79 K	161.29
168.77 K	161.72
170 K	162.9
170.92 K	163.42
171.04 K	163.63
173.08 K	165.15
174.3 K	166.52
175.23 K	166.71
177.4 K	168.6
177.57 K	168.98
179.56 K	169.93
180 K	170.9
180.86 K	171.6
181.72 K	171.53
183.88 K	173.5
184.14 K	174.07
186.04 K	174.91
187.43 K	176.58
188.2 K	176.89
190 K	178.5
190.37 K	178.59
190.73 K	179
192.53 K	179.84
194.03 K	181.5
194.69 K	181.95
196.86 K	183.62
197.33 K	184.05
199.04 K	185.07
200 K	185.9
200.64 K	186.38
201.21 K	186.11
203.39 K	188.25
203.96 K	188.7
205.57 K	189.66
207.29 K	191
207.76 K	190.53
209.94 K	192.52
210 K	192.8
210.62 K	193.2
212.16 K	193.78
213.96 K	195.29
214.35 K	195.47
216.54 K	197.08
217.3 K	197.61
218.74 K	198.53
220 K	199.5
220.63 K	199.85
220.93 K	199.41
223.12 K	200.77
223.97 K	202.1
225.3 K	202.74
227.29 K	204.34
227.48 K	203.96
229.65 K	205.76
230 K	206.1
230.62 K	206.56
231.82 K	207.32
233.94 K	208.88
233.99 K	208.88
236.16 K	210.12
237.24 K	210.9
238.32 K	211.49
240 K	212.7
240.47 K	213.05
240.54 K	213.1
242.63 K	214.29
243.84 K	215.04
244.78 K	215.47
246.91 K	216.48
247.12 K	217.09
249.05 K	217.96
250 K	218.9
250.39 K	219.06
251.18 K	219.63
253.31 K	221.05
253.64 K	221.26
255.43 K	222.37
256.89 K	223.31
257.55 K	223.64
259.67 K	224.86
260 K	225.1
260.12 K	225.23
261.78 K	226.04
263.34 K	227.07
263.89 K	227.38
265.99 K	228.04
266.52 K	229.07
268.1 K	229.52
269.68 K	230.88
270 K	231.1
270.18 K	231.01
272.26 K	232.16
272.81 K	232.32
273.15 K	232.9
274.34 K	233.42
275.92 K	234.35
276.41 K	234
278.48 K	235.58
278.99 K	236.21
280 K	236.7
280.47 K	237.16
282.03 K	237.88
282.51 K	238.07
284.55 K	239.1
284.97 K	239.95
286.57 K	240.28
287.96 K	241.21
288.59 K	241.63
290 K	242.2
290.6 K	242.66
290.92 K	242.32
292.61 K	243.54
293.88 K	243.77
294.6 K	244.61
296.58 K	245.63
296.81 K	245.8
298.15 K	246.6
298.56 K	246.66
299.68 K	247.51
300 K	247.6
300.53 K	247.64
302.49 K	248.72
302.54 K	249.04
304.44 K	249.67
305.37 K	250.52
306.39 K	250.6
308.18 K	251.84
308.34 K	251.49
310 K	252.8
310.27 K	252.37
310.97 K	253.24
312.09 K	253.75
313.74 K	254.51
314.01 K	254.23
315.94 K	255.03
316.5 K	255.82
317.86 K	255.92
319.23 K	257.03
319.77 K	256.66
320 K	257.4
321.68 K	257.57
321.95 K	258.16
323.58 K	258.37
